Data set [1] relates to immortalized lung BEAS-2B normal cell lines. Put plainly: MTT cytotoxicity assay, normal lung BEAS-2B cells. As to conditions: Homo sapiens, 72 h, read-out: BEAS-2B Cells IC50. The class given is cell-based. As to the method: (§1) Adenocarcinomic human alveolar basal epithelial (A549) and human hepatoma (HepG2) cancer cell lines, immortalized normal human liver (LO2), human bronchial epithelial (BEAS-2B cells were purchased from [NT], Manassas, VA, USA). […] Invitrogen, Waltham, MA, USA). All cells were incubated at 37 °C in a 5% humidified CO2 incubator). All test compounds were dissolved in DMSO at a final concentration of 50 mM and stored at -20 °C before use. Cytotoxicity was assessed by the MTT (5 mg/mL) assay, as described previously. Briefly, 5 × 10^3 cells per well were seeded in 96-well plates before drug treatments. […] Cells without drug treatment were used as controls. Subsequently, 10 μL of 5 mg/mL MTT solution was added to each well and incubated at 37 °C for 4 h, followed by the addition of 100 μL solubilization buffer (12 mM HCl in a solution of 10% SDS) and overnight incubation. The absorbance, A570 nm, was then determined in each well on the next day. The percentage of cell viability was calculated using the expression: % viability = Atreated/Acontrol × 100, and was given as cytotoxicity (Table 2 and Table 3; […]

Data set [2] deals with human HepG2 cancer cell lines. Put plainly: MTT cytotoxicity assay, liver cancer HepG2 cells. The conditions noted are these: for IC50: read-out: HepG2 Cells IC50; for S.I. Selectivity index liver (IC50 normal cells/IC50 cancer cells): LO2 IC50 / HepG2 IC50. The data set is classed as cell-based. As to the method:
as §1

Data set [3] has as its system immortalized liver LO2 normal cell lines. Kind of data set: MTT cytotoxicity assay, normal liver LO2 cells. The data set is classed as cell-based. As to conditions: Homo sapiens, read-out: LO2 Cells IC50. As to the method:
as §1

Data set [4] has as its system human lung A549 cancer cell lines. Put plainly: MTT cytotoxicity assay, lung cancer A549 cells. The class given is cell-based. As to conditions: for IC50: Homo sapiens, read-out: A549 Cells IC50; for S.I. Selectivity index lung (IC50 normal cells/IC50 cancer cells): BEAS-2B IC50 / A549 IC50. As to the method: as §1
[5] abbreviates: MTT, 0.19–100 μM, normal lung cells.
Setting [6] is: Homo sapiens, HepG2, 72 h, MTT, 72 h, 0.19–100 μM, means of at least three independent experiments in duplicates.
The mark [7] stands for this setting: L02, MTT, 72 h, 0.19–100 μM, normal liver cells.
[8] abbreviates: A549, MTT, 72 h, 0.19–100 μM, means of at least three independent experiments in duplicates.

Read-outs that look alike come from different tables or passages of the source.

With `COc1ccc(C2C([N+](=O)[O-])C(CC(C)C)NC23C(=O)Nc2ccc(Br)cc23)cc1OCc1ccccc1` (stereo not drawn) [Compound 4f, 3′-(3-(benzyloxy)-4-methoxyphenyl)-5-bromo-5′-isobutyl-4′-nitrospiro[indoline-3,2′-pyrrolidin]-2-one], the melting point fell in the range of 95 to 97 °C. For the same compound, in data set [1] (setting [5]), the IC50 was > 100 µM. Moreover, the IC50 in data set [2] (setting [6]) was found to be 82 µM. Further, the half-inhibitory concentration (IC50) in data set [3] (setting [7]) was > 100 µM. Also, the IC50 in data set [4] (setting [8]) was determined as 41.1 µM.
As to `COc1ccc(C2C([N+](=O)[O-])C3CCCN3C23C(=O)Nc2ccccc23)cc1OCc1ccccc1` (stereo not drawn) [Compound 4p, 2′-(3-(benzyloxy)-4-methoxyphenyl)-1′-nitro-1′,2′,5′,6′,7′,7a′-hexahydrospiro[indoline-3,3′-pyrrolizin]-2-one], the melting point was in the range of 83 to 85 °C. The IC50 in data set [1] (setting [5]) was > 100 µM. Also, in data set [2] (setting [6]), the IC50 was > 100 µM. In addition, the IC50 in data set [3] (setting [7]) is > 100 µM. Further, the IC50 in data set [4] (setting [8]) is > 100 µM.
Take `COc1cc(C2C([N+](=O)[O-])C3CCCN3C23C(=O)Nc2ccc(Br)cc23)ccc1OCc1ccccc1` (stereo not drawn) [Compound 4o, 2′-(4-(benzyloxy)-3-methoxyphenyl)-5-bromo-1′-nitro-1′,2′,5′,6′,7′,7a′-hexahydrospiro[indoline-3,3′-pyrrolizin]-2-one]: the melting point was in the range of 95 to 97 °C. Also, the IC50 in data set [1] (setting [5]) is > 100 µM. Besides, the IC50 in data set [2] (setting [6]) was > 100 µM. For the same compound, the IC50 in data set [3] (setting [7]) is > 100 µM. Further, the IC50 in data set [4] (setting [8]) was > 100 µM.
For the compound `COc1cccc(C2C([N+](=O)[O-])C3CCCN3C23C(=O)Nc2ccc(Br)cc23)c1` (stereo not drawn) [Compound 4t, 5-bromo-2′-(3-methoxyphenyl)-1′-nitro-1′,2′,5′,6′,7′,7a′-hexahydrospiro[indoline-3,3′-pyrrolizin]-2-one], the melting point lay in the range of 145 to 147 °C. In addition, in data set [1] (setting [5]), the IC50 turned out to be 67.7 µM. Moreover, the IC50 in data set [2] (setting [6]) came out at 46.1 µM. Also, the “S.I. Selectivity index liver (IC50 normal cells/IC50 cancer cells)” value (shortened to “S.I. Selectivity index liver”) in data set [2] was 0.99. Also, the IC50 in data set [3] (setting [7]) was 45.5 µM. In data set [4], the “S.I. Selectivity index lung (IC50 normal cells/IC50 cancer cells)” value (from here on “S.I. Selectivity index lung”) is reported as 1.50. Further, the IC50 in data set [4] (setting [8]) stood at 45.2 µM.
`COc1cc(C2C([N+](=O)[O-])C(C)NC23C(=O)Nc2ccccc23)ccc1OCc1ccccc1` (stereo not drawn) [Compound 4l, 3′-(4-(benzyloxy)-3-methoxyphenyl)-5′-methyl-4′-nitrospiro[indoline-3,2′-pyrrolidin]-2-one] yielded a melting point of 168 to 170 °C. Moreover, in data set [1] (setting [5]), the IC50 is > 100 µM. Moreover, the IC50 in data set [2] (setting [6]) was > 100 µM. Moreover, the IC50 in data set [3] (setting [7]) was > 100 µM. The IC50 in data set [4] (setting [8]) was > 100 µM.
The compound `COc1ccc(OC)c(C2C([N+](=O)[O-])C3CCCN3C23C(=O)Nc2ccc(Br)cc23)c1` (stereo not drawn) [Compound 4u, 5-bromo-2′-(2,5-dimethoxyphenyl)-1′-nitro-1′,2′,5′,6′,7′,7a′-hexahydrospiro[indoline-3,3′-pyrrolizin]-2-one] showed a melting point of 190 to 192 °C. Moreover, the IC50 in data set [1] (setting [5]) was > 100 µM. For the same compound, the IC50 in data set [2] (setting [6]) is > 100 µM. Further, in data set [3] (setting [7]), the IC50 was > 100 µM. Further, in data set [4] (setting [8]), the IC50 is > 100 µM.
`CCN(CC)CCCC(C)Nc1ccnc2cc(Cl)ccc12` (stereo not drawn) [CQ, chloroquine, reference compound]: the IC50 in data set [1] amounted to 3.07 µM; in data set [2] (Homo sapiens, HepG2, 72 h), 49.02 ± 0.4 µM; in data set [3] (L02, 72 h), 15 µM; in data set [4] (A549, 72 h), 100 µM. Further, the “S.I. Selectivity index liver” value in data set [2] was determined as 0.30.
`COc1ccc(OC)c(C2C([N+](=O)[O-])C(C)NC23C(=O)Nc2ccc(Br)cc23)c1` (stereo not drawn) [Compound 4e, 5-bromo-3′-(2,5-dimethoxyphenyl)-5′-methyl-4′-nitrospiro[indoline-3,2′-pyrrolidin]-2-one]: the melting point was 108 to 110 °C. Also, in data set [1] (setting [5]), the IC50 was > 100 µM. For the same compound, the IC50 in data set [2] (setting [6]) is > 100 µM. Also, the “S.I. Selectivity index liver” value in data set [2] was <0.81. For the same compound, in data set [3] (setting [7]), the IC50 amounted to 81.3 µM. The IC50 in data set [4] (setting [8]) is 85.6 µM.
`COc1ccc(C2C([N+](=O)[O-])C(C)NC23C(=O)Nc2ccccc23)cc1OC` (stereo not drawn) [Compound 4i, 3′-(3,4-dimethoxyphenyl)-5′-methyl-4′-nitrospiro[indoline-3,2′-pyrrolidin]-2-one] gave a melting point of 165 to 167 °C. Also, in data set [1] (setting [5]), the IC50 was > 100 µM. The IC50 in data set [2] (setting [6]) was > 100 µM. Also, the IC50 in data set [3] (setting [7]) was > 100 µM. Besides, the IC50 in data set [4] (setting [8]) is > 100 µM.
Regarding `COc1ccc(C2C([N+](=O)[O-])C3CCCN3C23C(=O)Nc2ccc(Br)cc23)cc1OCc1ccccc1` (stereo not drawn) [Compound 4q, 2′-(3-(benzyloxy)-4-methoxyphenyl)-5-bromo-1′-nitro-1′,2′,5′,6′,7′,7a′-hexahydrospiro[indoline-3,3′-pyrrolizin]-2-one], the melting point was in the range of 98 to 100 °C. In addition, in data set [1] (setting [5]), the IC50 was > 100 µM. Moreover, the IC50 in data set [2] (setting [6]) is 85.6 µM. Besides, the “S.I. Selectivity index liver” value in data set [2] is 0.54. Moreover, in data set [2] (MTT, 72 h, 0.19–100 μM, means of at least three independent experiments in duplicates), the IC50 turned out to be 86.5 µM. Moreover, in data set [3] (setting [7]), the IC50 turned out to be 46.8 µM. Moreover, in data set [4] (setting [8]), the IC50 was 47.9 µM.
Take `COc1ccc(OC)c(C2C([N+](=O)[O-])C(C(C)C)NC23C(=O)Nc2ccccc23)c1` (stereo not drawn) [Compound 4d, 3′-(2,5-dimethoxyphenyl)-5′-isopropyl-4′-nitrospiro[indoline-3,2′-pyrrolidin]-2-one]: the melting point was 210 to 212 °C. In addition, the IC50 in data set [1] (setting [5]) was > 100 µM. The IC50 in data set [2] (setting [6]) is > 100 µM. Moreover, in data set [3] (setting [7]), the IC50 is > 100 µM. Also, the IC50 in data set [4] (setting [8]) is > 100 µM.
`C[C@@H]1CC[C@H]2[C@@H](C)C(=O)O[C@@H]3O[C@@]4(C)CC[C@@H]1[C@]32OO4` [ART, artemisinin, reference compound]: the 50% inhibitory concentration (IC50) was 100 µM in data set [1] (setting [5]), > 100 µM in data set [2] (setting [6]), > 100 µM in data set [3] (setting [7]) and 100 µM in data set [4] (setting [8]).
`COc1ccc(C2C([N+](=O)[O-])C3CCCN3C23C(=O)Nc2ccccc23)cc1OC` (stereo not drawn) [Compound 4v, 2′-(3,4-dimethoxyphenyl)-1′-nitro-1′,2′,5′,6′,7′,7a′-hexahydrospiro[indoline-3,3′-pyrrolizin]-2-one] showed a melting point of 175 to 177 °C. Moreover, the IC50 in data set [1] (setting [5]) is > 100 µM. Moreover, in data set [2] (setting [6]), the IC50 is > 100 µM. For the same compound, in data set [3] (setting [7]), the IC50 is > 100 µM. Also, the IC50 in data set [4] (setting [8]) was > 100 µM.
Compound `COc1cc(C2C([N+](=O)[O-])C(CC(C)C)NC23C(=O)Nc2ccccc23)ccc1OCc1ccccc1` (stereo not drawn) [Compound 4k, 3′-(4-(benzyloxy)-3-methoxyphenyl)-5′-isobutyl-4′-nitrospiro[indoline-3,2′-pyrrolidin]-2-one] displayed a melting point of 68 to 70 °C. For the same compound, in data set [1] (setting [5]), the IC50 is > 100 µM. For the same compound, in data set [2] (setting [6]), the IC50 is 67.8 µM. The “S.I. Selectivity index liver” value in data set [2] is recorded as 0.49. The IC50 in data set [3] (setting [7]) came to 33.3 µM. The IC50 in data set [4] (setting [8]) is > 100 µM.
The compound `COc1cc(C2C([N+](=O)[O-])C(C)NC23C(=O)Nc2ccc(Br)cc23)ccc1OCc1ccccc1` (stereo not drawn) [Compound 4m, 3′-(4-(benzyloxy)-3-methoxyphenyl)-5-bromo-5′-methyl-4′-nitrospiro[indoline-3,2′-pyrrolidin]-2-one] showed a melting point of 168 to 170 °C. Further, the IC50 in data set [1] (setting [5]) worked out at 63.5 µM. Moreover, the IC50 in data set [2] (setting [6]) was determined as 41.6 µM. In addition, the “S.I. Selectivity index liver” value in data set [2] is 0.88. The IC50 in data set [3] (setting [7]) turned out to be 36.6 µM. In addition, the “S.I. Selectivity index lung” value in data set [4] is reported as 1.38. For the same compound, the IC50 in data set [4] (setting [8]) worked out at 45.9 µM.
With `COc1ccc(C2C([N+](=O)[O-])C(C)NC23C(=O)Nc2ccc(Br)cc23)cc1OC` (stereo not drawn) [Compound 4j, 5-bromo-3′-(3,4-dimethoxyphenyl)-5′-methyl-4′-nitrospiro[indoline-3,2′-pyrrolidin]-2-one], the melting point was in the range of 155 to 157 °C. For the same compound, in data set [1] (setting [5]), the IC50 is > 100 µM. In addition, the IC50 in data set [2] (setting [6]) is > 100 µM. The IC50 in data set [3] (setting [7]) is > 100 µM. Further, the IC50 in data set [4] (setting [8]) was > 100 µM.
Consider `C[C@H]1[C@H](OC(=O)CCC(=O)O)O[C@@H]2O[C@@]3(C)CC[C@H]4[C@H](C)CC[C@@H]1[C@@]24OO3` [AS, artesunic acid, reference compound], for which the IC50 in data set [1] (setting [5]) is 7.53 µM; in data set [2] (setting [6]), 4.09 ± 0.4 µM; in data set [3] (setting [7]) it was 8.25 µM; in data set [4] (setting [8]), 9.85 µM. In addition, the “S.I. Selectivity index liver” value in data set [2] is 2.01. Moreover, the “S.I. Selectivity index lung” value in data set [4] was 0.76.

The values above are taken from publication PMC10537280, “Chemo-/Regio-Selective Synthesis of Novel Functionalized Spiro[pyrrolidine-2,3′-oxindoles] under Microwave Irradiation and Their Anticancer Activity” (Molecules, 2023).
